Measured values reported in ChEMBL document CHEMBL1201862, “PubChem BioAssay data set” (2004).
Active and inactive are the calls of the source.

Experiments:
Cytochrome P450 3A4 = Cytochrome P450 3A4 (Homo sapiens, UniProt P08684); conditions: Potency;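 note: confirmatory qHTS run detecting inhibitors and substrates of CYP3A4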
Cytochrome P450 2D6 = Cytochrome P450 2D6 (Homo sapiens, UniProt P10635); assay: qHTS Assay for Inhibitors and Substrates of Cytochrome P450 2D6. [Related pubchem assays: 410 ]; format: ADME; conditions: read-out: Potency
Beta Lactamase = Beta Lactamase (Pseudomonas aeruginosa, UniProt Q932Y6); assay: beta-lactamase reporter inhibitor potency, dose response, artefact control for TLR9-MyD88 binding inhibitor project, BLA reporter cells, FRET fluorescence (AID 588341); format: cell-based;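 note: cell based assay in CHO-K1 cells stably expressing beta-lactamase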
[1] = Fluorescence-based cell-based high throughput dose response assay for inhibitors of the interaction of nucleotide-binding oligomerization domain containing 2 (NOD2) and the receptor-interacting serine-threonine kinase 2 (RIPK2).; format: functional; conditions: Homo sapiens
[2] = THP-1 cell cytotoxicity, dose response, cytotoxicity control for non-replicating M. tuberculosis project (AID 489025); format: functional
INS1 = assay: beta cell apoptosis inhibitors, cytokine rescue, dose response, luminescence, retest (AID 449756); format: functional, cell-based; conditions: Rattus norvegicus;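 note: cell death triggered by IL-1 beta plus TNF-alpha plus IFN-gamma mixture; protective hits raise ATP signal compared with cytokine alone wells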
[3] = non-specific cell cytotoxicity, dose response, cytotoxicity control for PAX8 inhibitor project, plate reader, dry powder samples (AID 743021); format: functional, cell-based
HeLa = assay: Cytotoxicity counterscreen assay for transcriptional activators of heat shock protein 70 (Hsp70). [Related pubchem assays: 1203, 1252 ]; format: functional; conditions: Homo sapiens
Paired box protein Pax-8 = Paired box protein Pax-8 (Homo sapiens, UniProt Q06710); assay: inhibitors of PAX8-driven TPO luciferase reporter, dose response, RMG-I cells, cherry-pick (AID 687027); format: functional, cell-based;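 note: luciferase reporter driven by Pax8 target thyroperoxidase promoter measured by SteadyGlo luminescence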
[4] = target: Photoreceptor-specific nuclear receptor (Homo sapiens, UniProt Q9Y5X4); format: functional, cell-based;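 note: CHO-S cells with Gal4-NCOR and VP16-NR2E3 two-hybrid luciferase reporter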
[5] = growth suppression of PTEN-null colon cells, dose response, cell-based, HCT116 PTEN knockout (AID 1047); format: functional;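 note: HCT116 colon tumor cells with PTEN knocked out; cells exposed to compound for 60 hours before readout; potency for loss of cell viability measured by luminescence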
CHO = assay: cytotoxicity in TLR9-MyD88 CHO cells, dose response, cytotoxicity control for TLR9-MyD88 binding inhibitor project, cell-based, luminescence (AID 588339); format: functional, hamster; conditions: Cricetulus griseus;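 note: CHO cells stably coexpressing TLR9 and MyD88 fusions from primary screen; compound exposure lasted 48 hours before viability readout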
[6] = growth suppression of beta-catenin-knockout colon cells, dose response, cell-based, HCT116, human colon tumor (AID 1045); format: functional;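 note: HCT116 colon tumor cells with beta catenin knocked out; cells exposed to compound for 60 hours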
[7] = Vero E6 cell cytotoxicity, dose response, cytotoxicity control for non-replicating M. tuberculosis project, secondary assay (AID 492998); format: functional, VeroE6; conditions: Vero C1008
cells [8] = format: functional
[9] = microbe, parasite or virus in culture; format: functional; conditions: Mycobacterium tuberculosis
NS3 = NS3 (Hepatitis C virus, UniProt A3EZJ3); assay: PubChem AID 2173; set-up: species or system Hepacivirus hominis
Streptokinase A = target: T1, Streptokinase A (Streptococcus pyogenes serotype M1, UniProt P10520); assay: S. pyogenes streptokinase expression inhibitors, potency, dose response, plasminogen activation absorbance, OD405 (AID 1914); format: functional, Streptococcus pyogenes M1 GAS;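 note: secreted streptokinase activity via plasminogen activation per viability signal from cell pellet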
T1 sequence (P10520 whole entry): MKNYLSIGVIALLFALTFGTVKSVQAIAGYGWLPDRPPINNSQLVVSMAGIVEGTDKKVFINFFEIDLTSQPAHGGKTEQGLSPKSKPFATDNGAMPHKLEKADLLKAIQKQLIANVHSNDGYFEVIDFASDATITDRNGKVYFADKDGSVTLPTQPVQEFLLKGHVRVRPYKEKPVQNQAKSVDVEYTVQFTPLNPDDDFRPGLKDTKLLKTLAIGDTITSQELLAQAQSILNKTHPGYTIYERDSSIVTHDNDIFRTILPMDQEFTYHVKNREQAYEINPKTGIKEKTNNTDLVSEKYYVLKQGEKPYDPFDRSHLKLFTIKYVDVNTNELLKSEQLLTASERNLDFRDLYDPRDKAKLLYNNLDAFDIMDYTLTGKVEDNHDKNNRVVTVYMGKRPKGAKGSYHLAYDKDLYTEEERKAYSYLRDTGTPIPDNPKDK

Streptococcus [10] = assay: Group A Streptococcus viability loss, dose response, counter-screen for streptokinase expression inhibitor project, luminescence, BacTiterGlo (AID 1915); format: functional, organism-based;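 note: potency for reduction of bacterial viability or growth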
[11] = system: Streptococcus sp. 'group A'; assay: growth inhibition of control SK(-) GAS strain, dose response, counter-screen for streptokinase expression inhibitor project, luminescence, kanamycin, BacTiterGlo, confirmation (AID 1900); format: functional, organism-based
Streptococcus [12] = assay: Luminescence Microorganism-Based Dose Response Follow up to Identify Compounds Cytotoxic to Streptococcus. [Related pubchem assays: 1677 (Project Summary), 1915, 1914, 1902 (Retest at Dose), 1900 (Counter Screen), 1662 (Primary HTS)]; format: functional, organism-based
[13] = Luminescence-based dose response cell-based high throughput screening assay for cytotoxic compounds using the IEC-6 intestinal epithelial cell line. [Related pubchem assays: 1858 (Summary AID.), 1825 (Counterscreen.), 1907 (Confirmation screen.)]; format: functional
HEK293 = assay: inhibitors of LMP1-driven NF-kB reporter, dose response, cell-based, HEK293, luciferase, cherry-pick (AID 588343); format: functional; conditions: Homo sapiens
[14] = luciferase reporter signal reduction – luminescence, H4-C neuroglioblastoma cells, dose response (AID 2458); format: functional, cell-based;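 note: H4 neuroglioblastoma cells stably carrying a luciferase reporter gene fusion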
[15] = inhibitors of firefly luciferase expression or activity, dose response, H4 neuroglioma cells, luminescence (AID 1990); format: functional, cell-based
BJ [16] = assay: cytotoxicity toward Ras-transformed BJeLR fibroblasts, dose response, cell-based, alamar blue fluorescence, cherrypicked samples (AID 2631); format: functional; conditions: Homo sapiens;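 note: confirmatory dose-response assay in RAS-dependent BJ fibroblasts engineered with TERT, LT and ST, with cytotoxicity read by fluorescence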
BJ [17] = assay: cells; format: functional, cell-based; conditions: Homo sapiens
BJ [18] = assay: cytotoxicity toward BJ-TERT-LT-ST fibroblasts, dose response, cell-based, RAS-independent, luminescence (AID 1935); format: functional; conditions: Homo sapiens;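 note: BJ fibroblasts immortalized with TERT plus LT and ST oncogenes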
cells [19] = format: functional, cell-based
[20] = inhibitors of SNCA 5'UTR-driven translation, confirmation, luminescence, H4 neuroglioblastoma cells, dose confirmation (AID 2454); format: functional, cell-based;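 note: H4 neuroglioblastoma cells carrying an alpha-synuclein 5'UTR luciferase reporter; potency for inhibition of the luciferase signal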
[21] = Luminescence Cell-Based Dose Response HTS to Identify Inhibitors of 5'UTR Stem-Loop Driven Prion Protein mRNA Translation in H4 Neuroglioblastoma Cells. [Related pubchem assays: 1827 (Project Summary), 1813 (Primary HTS)]; format: functional
[22] = inhibitors of SNCA 5'UTR-driven reporter translation, confirmation, H4 neuroglioma cells, luminescence (AID 1988); format: functional, cell-based
Aminopeptidase N = target: T2, Aminopeptidase N (Plasmodium falciparum FcB1/Columbia, UniProt O96935); assay: P. falciparum M1AAP inhibitors, biochemical, fluorogenic H-Leu-NHMec substrate, 1536-well (AID 1445); set-up: species or system Plasmodium falciparum 3D7, 3D7
T2 sequence (O96935 whole entry): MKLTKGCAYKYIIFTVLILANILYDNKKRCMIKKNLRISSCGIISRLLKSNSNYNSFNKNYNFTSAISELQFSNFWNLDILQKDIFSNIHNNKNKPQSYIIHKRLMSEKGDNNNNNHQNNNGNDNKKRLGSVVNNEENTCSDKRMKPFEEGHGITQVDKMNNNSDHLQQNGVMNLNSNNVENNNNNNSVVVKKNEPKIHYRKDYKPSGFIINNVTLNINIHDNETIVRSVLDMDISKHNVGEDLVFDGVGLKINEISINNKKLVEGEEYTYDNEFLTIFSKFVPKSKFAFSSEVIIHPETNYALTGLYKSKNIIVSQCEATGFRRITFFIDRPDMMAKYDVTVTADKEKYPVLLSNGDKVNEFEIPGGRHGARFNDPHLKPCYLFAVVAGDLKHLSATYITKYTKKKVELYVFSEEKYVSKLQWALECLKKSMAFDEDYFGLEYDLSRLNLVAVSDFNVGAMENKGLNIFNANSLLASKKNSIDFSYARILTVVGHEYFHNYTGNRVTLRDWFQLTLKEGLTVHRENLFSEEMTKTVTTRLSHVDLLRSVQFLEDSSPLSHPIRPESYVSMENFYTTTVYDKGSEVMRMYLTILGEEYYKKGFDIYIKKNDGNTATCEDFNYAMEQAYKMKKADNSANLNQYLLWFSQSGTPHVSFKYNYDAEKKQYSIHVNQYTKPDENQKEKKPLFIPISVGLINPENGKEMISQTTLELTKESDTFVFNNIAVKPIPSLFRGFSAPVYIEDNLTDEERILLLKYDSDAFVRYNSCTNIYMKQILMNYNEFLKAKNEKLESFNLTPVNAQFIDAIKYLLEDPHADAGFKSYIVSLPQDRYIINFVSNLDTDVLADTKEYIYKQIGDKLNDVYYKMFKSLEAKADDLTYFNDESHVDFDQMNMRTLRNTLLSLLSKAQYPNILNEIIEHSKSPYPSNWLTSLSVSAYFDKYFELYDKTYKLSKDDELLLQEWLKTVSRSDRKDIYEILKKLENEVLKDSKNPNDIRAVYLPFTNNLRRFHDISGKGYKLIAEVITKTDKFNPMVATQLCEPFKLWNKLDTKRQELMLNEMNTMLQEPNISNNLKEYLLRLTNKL

BJ [23] = assay: cytotoxicity toward BJ-TERT fibroblasts, dose response, cell-based, RAS-independent, luminescence (AID 1933); format: functional; conditions: Homo sapiens
[24] = target: T3, Alkaline phosphatase, tissue-nonspecific isozyme (Homo sapiens, UniProt P05186)
T3 sequence (P05186 whole entry): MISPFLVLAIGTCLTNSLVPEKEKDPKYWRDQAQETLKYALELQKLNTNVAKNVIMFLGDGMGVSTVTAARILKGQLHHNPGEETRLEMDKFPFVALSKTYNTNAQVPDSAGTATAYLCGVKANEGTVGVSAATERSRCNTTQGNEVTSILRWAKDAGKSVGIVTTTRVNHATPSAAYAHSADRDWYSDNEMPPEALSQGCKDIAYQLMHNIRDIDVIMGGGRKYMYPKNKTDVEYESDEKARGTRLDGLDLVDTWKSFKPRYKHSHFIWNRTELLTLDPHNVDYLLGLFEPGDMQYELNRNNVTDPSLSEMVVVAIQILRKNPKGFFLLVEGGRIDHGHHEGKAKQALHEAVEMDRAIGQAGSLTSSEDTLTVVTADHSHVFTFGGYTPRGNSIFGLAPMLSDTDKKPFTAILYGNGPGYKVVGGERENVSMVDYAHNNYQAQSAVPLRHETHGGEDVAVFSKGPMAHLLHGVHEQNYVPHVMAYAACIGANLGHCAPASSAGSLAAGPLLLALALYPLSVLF

[25] = target: G2/mitotic-specific cyclin-B1 (Homo sapiens, UniProt P14635); assay: Counterscreen assay for inhibitors of Wee1 degradation: dose response cell-based assay to identify inhibitors of cyclin B degradation. [Related pubchem assays: 1410, 1321 ]; format: functional
Wee1-like protein kinase = Wee1-like protein kinase (Homo sapiens, UniProt P30291); assay: Dose Response Cell-based Assay for Inhibitors of Wee1 Degradation. [Related pubchem assays: 1410, 1321 ]; format: functional
Bcl-2-like protein 10 = Bcl-2-like protein 10 (Homo sapiens, UniProt Q9HD36); assay: Biochemical TR3 FP assay of Bcl-B inhibitor potency, EC50 (AID 1243); format: functional
Bcl-2-like protein 10, sequence (Q9HD36 whole entry): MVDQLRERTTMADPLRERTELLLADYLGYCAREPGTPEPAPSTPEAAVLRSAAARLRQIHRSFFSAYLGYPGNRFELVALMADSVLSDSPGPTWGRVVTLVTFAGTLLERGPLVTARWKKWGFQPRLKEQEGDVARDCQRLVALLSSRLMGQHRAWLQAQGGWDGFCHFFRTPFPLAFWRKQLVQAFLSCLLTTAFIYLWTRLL

Wee1-like protein kinase, sequence (P30291 whole entry): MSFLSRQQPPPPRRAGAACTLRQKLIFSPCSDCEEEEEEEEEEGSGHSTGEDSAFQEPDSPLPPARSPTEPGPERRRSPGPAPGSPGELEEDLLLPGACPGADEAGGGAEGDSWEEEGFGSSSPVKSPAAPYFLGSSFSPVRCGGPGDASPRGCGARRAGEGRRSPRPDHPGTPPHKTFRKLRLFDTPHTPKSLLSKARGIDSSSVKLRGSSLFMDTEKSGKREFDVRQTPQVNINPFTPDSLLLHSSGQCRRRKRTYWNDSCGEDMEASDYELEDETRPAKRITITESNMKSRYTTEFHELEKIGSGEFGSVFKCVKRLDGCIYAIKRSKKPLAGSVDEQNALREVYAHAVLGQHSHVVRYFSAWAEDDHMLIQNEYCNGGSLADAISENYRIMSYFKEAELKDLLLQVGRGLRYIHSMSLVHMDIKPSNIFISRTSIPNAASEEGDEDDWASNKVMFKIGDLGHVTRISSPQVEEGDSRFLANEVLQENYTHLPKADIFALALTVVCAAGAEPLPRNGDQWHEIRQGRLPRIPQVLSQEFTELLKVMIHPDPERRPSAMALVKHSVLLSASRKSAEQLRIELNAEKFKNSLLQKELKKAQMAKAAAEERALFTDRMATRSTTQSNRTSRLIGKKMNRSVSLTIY
NS3, sequence (A3EZJ3 whole entry): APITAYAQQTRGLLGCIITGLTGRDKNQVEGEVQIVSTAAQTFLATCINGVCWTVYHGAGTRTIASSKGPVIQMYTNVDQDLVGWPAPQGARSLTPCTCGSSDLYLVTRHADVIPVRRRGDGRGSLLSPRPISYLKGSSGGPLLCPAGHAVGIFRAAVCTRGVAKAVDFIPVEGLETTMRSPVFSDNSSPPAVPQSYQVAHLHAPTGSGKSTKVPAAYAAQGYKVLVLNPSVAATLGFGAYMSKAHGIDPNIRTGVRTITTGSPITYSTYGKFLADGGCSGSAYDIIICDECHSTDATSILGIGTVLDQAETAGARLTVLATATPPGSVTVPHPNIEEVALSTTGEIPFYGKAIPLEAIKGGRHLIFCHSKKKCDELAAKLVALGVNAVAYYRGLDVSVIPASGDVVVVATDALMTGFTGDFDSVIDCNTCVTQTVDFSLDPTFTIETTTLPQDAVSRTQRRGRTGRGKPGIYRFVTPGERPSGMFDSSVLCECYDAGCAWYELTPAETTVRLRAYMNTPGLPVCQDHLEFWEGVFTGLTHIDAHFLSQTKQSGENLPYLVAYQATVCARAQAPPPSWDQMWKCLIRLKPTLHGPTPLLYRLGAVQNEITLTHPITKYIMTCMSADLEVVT
Paired box protein Pax-8, sequence (Q06710 whole entry, the tested form may be a part): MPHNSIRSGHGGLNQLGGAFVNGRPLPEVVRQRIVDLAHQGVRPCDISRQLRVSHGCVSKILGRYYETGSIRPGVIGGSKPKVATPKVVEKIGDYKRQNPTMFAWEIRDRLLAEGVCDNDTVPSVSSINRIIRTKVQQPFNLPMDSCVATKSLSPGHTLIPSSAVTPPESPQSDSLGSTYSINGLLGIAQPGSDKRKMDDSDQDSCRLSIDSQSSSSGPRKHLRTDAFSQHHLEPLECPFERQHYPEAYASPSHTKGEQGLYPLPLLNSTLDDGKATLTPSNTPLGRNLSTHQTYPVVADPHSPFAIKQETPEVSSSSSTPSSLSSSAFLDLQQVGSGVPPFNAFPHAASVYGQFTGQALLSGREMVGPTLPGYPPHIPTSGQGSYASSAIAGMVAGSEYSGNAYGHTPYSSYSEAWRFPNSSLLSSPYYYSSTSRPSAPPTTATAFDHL
Cytochrome P450 2D6, sequence (P10635 whole entry): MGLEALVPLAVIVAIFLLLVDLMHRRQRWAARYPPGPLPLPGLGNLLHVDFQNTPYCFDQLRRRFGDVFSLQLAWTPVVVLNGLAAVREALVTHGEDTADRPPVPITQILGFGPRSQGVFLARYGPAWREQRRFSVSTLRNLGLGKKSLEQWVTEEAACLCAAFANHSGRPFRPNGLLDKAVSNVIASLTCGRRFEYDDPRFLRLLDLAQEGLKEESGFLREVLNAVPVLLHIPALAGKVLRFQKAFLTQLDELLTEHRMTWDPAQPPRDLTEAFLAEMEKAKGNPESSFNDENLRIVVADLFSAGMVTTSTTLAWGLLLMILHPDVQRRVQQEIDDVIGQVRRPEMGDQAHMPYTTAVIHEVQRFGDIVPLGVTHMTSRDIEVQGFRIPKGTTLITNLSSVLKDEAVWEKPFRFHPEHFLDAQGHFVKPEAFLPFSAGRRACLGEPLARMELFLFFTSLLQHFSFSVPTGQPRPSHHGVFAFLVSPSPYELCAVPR
Cytochrome P450 3A4, sequence (P08684 whole entry): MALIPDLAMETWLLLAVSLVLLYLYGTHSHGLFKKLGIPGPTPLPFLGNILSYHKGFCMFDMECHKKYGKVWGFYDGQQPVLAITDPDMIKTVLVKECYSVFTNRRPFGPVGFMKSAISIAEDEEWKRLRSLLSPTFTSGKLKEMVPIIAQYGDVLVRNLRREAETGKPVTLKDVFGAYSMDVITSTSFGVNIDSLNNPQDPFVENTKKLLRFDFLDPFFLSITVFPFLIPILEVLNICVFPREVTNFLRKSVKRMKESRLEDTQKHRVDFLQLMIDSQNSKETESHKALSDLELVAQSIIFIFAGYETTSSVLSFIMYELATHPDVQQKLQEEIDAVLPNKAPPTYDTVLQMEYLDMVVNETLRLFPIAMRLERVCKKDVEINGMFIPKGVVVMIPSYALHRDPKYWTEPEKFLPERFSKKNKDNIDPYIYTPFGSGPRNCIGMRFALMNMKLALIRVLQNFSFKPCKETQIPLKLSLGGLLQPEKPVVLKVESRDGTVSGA
Beta Lactamase, sequence (Q932Y6 whole entry, the tested form may be a part): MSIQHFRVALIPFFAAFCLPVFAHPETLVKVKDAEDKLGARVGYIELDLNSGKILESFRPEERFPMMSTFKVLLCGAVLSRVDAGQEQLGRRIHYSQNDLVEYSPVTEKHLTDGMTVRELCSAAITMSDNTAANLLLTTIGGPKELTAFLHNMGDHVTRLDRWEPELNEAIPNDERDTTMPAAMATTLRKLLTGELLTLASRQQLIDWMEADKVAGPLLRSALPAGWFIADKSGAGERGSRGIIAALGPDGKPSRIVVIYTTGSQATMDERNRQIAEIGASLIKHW
G2/mitotic-specific cyclin-B1, sequence (P14635 whole entry): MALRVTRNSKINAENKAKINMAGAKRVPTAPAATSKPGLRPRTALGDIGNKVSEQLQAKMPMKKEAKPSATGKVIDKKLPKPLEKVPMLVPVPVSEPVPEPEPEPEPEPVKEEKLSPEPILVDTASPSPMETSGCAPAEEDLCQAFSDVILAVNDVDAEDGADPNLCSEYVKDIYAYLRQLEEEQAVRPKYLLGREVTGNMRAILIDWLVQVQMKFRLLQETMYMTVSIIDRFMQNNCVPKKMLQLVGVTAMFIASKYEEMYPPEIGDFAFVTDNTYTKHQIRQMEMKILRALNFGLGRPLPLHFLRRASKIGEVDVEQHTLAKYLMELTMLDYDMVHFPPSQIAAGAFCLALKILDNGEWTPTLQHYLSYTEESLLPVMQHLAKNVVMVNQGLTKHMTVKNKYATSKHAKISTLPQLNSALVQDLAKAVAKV
Photoreceptor-specific nuclear receptor, sequence (Q9Y5X4 whole entry, the tested form may be a part): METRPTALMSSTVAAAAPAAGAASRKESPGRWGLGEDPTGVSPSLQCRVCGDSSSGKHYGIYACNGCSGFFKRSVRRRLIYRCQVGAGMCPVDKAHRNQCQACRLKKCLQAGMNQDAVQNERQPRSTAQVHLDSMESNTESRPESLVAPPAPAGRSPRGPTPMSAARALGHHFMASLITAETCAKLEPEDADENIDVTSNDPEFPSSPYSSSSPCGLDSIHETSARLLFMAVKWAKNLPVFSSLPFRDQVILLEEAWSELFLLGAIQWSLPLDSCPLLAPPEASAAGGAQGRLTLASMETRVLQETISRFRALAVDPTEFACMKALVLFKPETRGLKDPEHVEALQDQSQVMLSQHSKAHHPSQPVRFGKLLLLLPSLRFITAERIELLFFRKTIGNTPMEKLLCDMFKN

## COc1cccc2[nH]c(-c3ccccn3)nc12
Cytochrome P450 3A4
  AC50: 3.98 µM (inconclusive)
Cytochrome P450 2D6
  AC50: 1.58 µM (inconclusive)

## COc1cc(OC)nc(-n2ncc(Br)c(Br)c2=O)n1
Beta Lactamase
  IC50: > 49.7 µM (inactive)
[1]
  IC50: 1.18 µM (active)
[2]
  CC50: 0.402 µM (active)
INS1
  AC50: 6.03 µM (active)
[3]
  AC50: 20.6 µM (active)
HeLa
  CC50: > 1.22 µM (not active)
Paired box protein Pax-8
  AC50: 2.66 µM (active)
[4]
  IC50: 2.69 µM (active)
[5]
  EC50: < 0.059 µM (active)
CHO
  IC50: 0.546 µM (active)
[6]
  EC50: < 0.059 µM (active)
[7]
  CC50: 1.36 µM (active)
Cells [8]
  IC50: 6.73 µM (active)
[9]
  CC50: 1.98 µM (active)

## CCC(C(=O)O)n1nnc(-c2ccc(-c3ccc(OC)cc3)cc2)n1 (stereo not drawn)
NS3
  IC50: 8.42 µM (active)

## CCOc1ccc(Cl)cc1S(=O)(=O)n1cnc2cc(C)c(C)cc21
Streptokinase A
  EC50: 7.31 µM (active)
Streptococcus [10]
  EC50: > 150 µM (not active)
[11]
  EC50: 23.8 µM (active)
Streptococcus [12]
  EC50: > 500 µM (not active)

## Cc1nc(N)nc(N)c1/C=C/C(C)(C)c1ccc(Cl)cc1
[13]
  IC50: > 0.00202 µM (active)
HEK293
  AC50: 0.0458 µM (active)
[14]
  EC50: 0.009 µM (active)
[15]
  EC50: < 0.1 µM (active)
BJ [16]
  EC50: > 133 µM (inactive)
BJ [17]
  EC50: < 0.12 µM (active)
BJ [18]
  EC50: > 150 µM (inconclusive)
Cells [19]
  EC50: 0.012 µM (active)
[20]
  EC50: < 0.001 µM (active)
[21]
  EC50: < 0.1 µM (active)
[22]
  EC50: < 0.1 µM (active)
Aminopeptidase N
  IC50: 66.2 µM (active)
BJ [23]
  EC50: 15.9 µM (active)

## CCCCNC(=O)CSc1nc2cc3c(cc2c(=O)n1CCC(=O)NCCc1ccc(OC)c(OC)c1)OCO3
[24]
  EC50: > 100 µM (not active)

## COc1ccc(Nc2oc(-c3ccc(OC)cc3)nc2C#N)cc1
[25]
  EC50: > 49.7 µM (not active)
Wee1-like protein kinase
  EC50: > 49.7 µM (not active)

## Cc1ccc(C)n1-c1ccc(C(=O)O)c(Cl)c1
Bcl-2-like protein 10
  EC50: 9.96 µM (active)
